# Measurements from PubChem BioAssay AID624355 (The Scripps Research Institute Molecular Screening Center, 2012).
# Calls of active or inactive are those of the source.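 Rule for the calls: active = inhibition of at least 50% in a panel; inactive = the rest.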
# Experiments:
# Assay in all cases: off-target binding across receptors and transporters, profiling panel, selectivity assay for STAT3/NF-kB dual inhibitor project, cell-based, radioligand binding, single concentration (AID 624355)
# Glutamate, NMDA, Glycine = conditions: Ricerca radioligand binding panel, Glycine site, at 10 µM, stronger effect = higher value
# [1] = test system: Glutamate, NMDA, Phencyclidine; conditions: Ricerca radioligand binding panel, Phencyclidine site, at 10 µM, stronger effect = higher value
# Histamine H1 = conditions: Ricerca radioligand binding panel, at 10 µM, stronger effect = higher value
# Histamine H2 = conditions: Ricerca radioligand binding panel, at 10 µM, stronger effect = higher value
# Histamine H3 = conditions: Ricerca radioligand binding panel, at 10 µM, stronger effect = higher value
# Imidazoline I2, Central = conditions: Ricerca radioligand binding panel, at 10 µM, stronger effect = higher value
# Interleukin IL-1 = conditions: Ricerca radioligand binding panel, at 10 µM, stronger effect = higher value
# [2] = target: Kappa-type opioid receptor (Homo sapiens) (UniProt P41145); conditions: Ricerca radioligand binding panel, Opiate (OP2, KOP), at 10 µM, stronger effect = higher value
# [3] = test system: Leukotriene, Cysteinyl CysLT1; conditions: Ricerca radioligand binding panel, at 10 µM, stronger effect = higher value
# Melatonin MT1 = conditions: Ricerca radioligand binding panel, at 10 µM, stronger effect = higher value
# [4] = target: Muscarinic acetylcholine receptor M1 (Homo sapiens) (UniProt P11229); conditions: Ricerca radioligand binding panel, at 10 µM, stronger effect = higher value
# [5] = target: Muscarinic acetylcholine receptor M2 (Homo sapiens) (UniProt P08172); conditions: Ricerca radioligand binding panel, at 10 µM, stronger effect = higher value
# [6] = target: Muscarinic acetylcholine receptor M3 (Homo sapiens) (UniProt P20309); conditions: Ricerca radioligand binding panel, at 10 µM, stronger effect = higher value
# [7] = target: Neuropeptide Y receptor type 1 (Homo sapiens) (UniProt P25929); conditions: Ricerca radioligand binding panel, Neuropeptide Y Y1, at 10 µM, stronger effect = higher value
# [8] = target: Neuropeptide Y receptor type 2 (Homo sapiens) (UniProt P49146); conditions: Ricerca radioligand binding panel, Neuropeptide Y Y2, at 10 µM, stronger effect = higher value
# Nicotinic Acetylcholine = conditions: Ricerca radioligand binding panel, at 10 µM, stronger effect = higher value
# Opiate (OP3, MOP) = conditions: Ricerca radioligand binding panel, at 10 µM, stronger effect = higher value
# Phorbol Ester = conditions: Ricerca radioligand binding panel, at 10 µM, stronger effect = higher value
# [9] = target: Platelet-activating factor receptor (Homo sapiens) (UniProt P25105); conditions: Ricerca radioligand binding panel, Platelet Activating Factor (PAF), at 10 µM, stronger effect = higher value
# Potassium Channel KATP = conditions: Ricerca radioligand binding panel, at 10 µM, stronger effect = higher value
# Prostanoid EP4 = conditions: Ricerca radioligand binding panel, at 10 µM, stronger effect = higher value
# Purinergic P2X = conditions: Ricerca radioligand binding panel, at 10 µM, stronger effect = higher value
# Purinergic P2Y = conditions: Ricerca radioligand binding panel, at 10 µM, stronger effect = higher value
# Rolipram = conditions: Ricerca radioligand binding panel, at 10 µM, stronger effect = higher value
# [10] = test system: Serotonin (5-Hydroxytryptamine) 5-HT3; conditions: Ricerca radioligand binding panel, at 10 µM, stronger effect = higher value
# Sigma1 = conditions: Ricerca radioligand binding panel, at 10 µM, stronger effect = higher value
# Tachykinin NK1 = conditions: Ricerca radioligand binding panel, at 10 µM, stronger effect = higher value
# Thyroid Hormone = conditions: Ricerca radioligand binding panel, at 10 µM, stronger effect = higher value
# [11] = test system: Transporter, Dopamine (DAT); conditions: Ricerca radioligand binding panel, at 10 µM, stronger effect = higher value
# Transporter, GABA = conditions: Ricerca radioligand binding panel, at 10 µM, stronger effect = higher value
# [12] = test system: Transporter, Norepinephrine (NET); conditions: Ricerca radioligand binding panel, at 10 µM, stronger effect = higher value
# [13] = test system: Transporter, Serotonin (5-Hydroxytryptamine); conditions: Ricerca radioligand binding panel, at 10 µM, stronger effect = higher value
# [14] = test system: Voltage-dependent L-type calcium channel subunit beta-4 (Rattus norvegicus) + Pro-epidermal growth factor (Homo sapiens) + Estrogen receptor (Homo sapiens) + Glucocorticoid receptor (Homo sapiens) + 5-hydroxytryptamine receptor 1A (Homo sapiens) + Alpha-2A adrenergic receptor (Homo sapiens) + Adenosine receptor A3 (Homo sapiens) + Androgen receptor (Homo sapiens) + Muscarinic acetylcholine receptor M1 (Homo sapiens) + D(4) dopamine receptor (Homo sapiens) + Alpha-2A adrenergic receptor (Rattus norvegicus) + Sodium- and chloride-dependent GABA transporter 1 (Rattus norvegicus) + Endothelin receptor type B (Homo sapiens) + Histamine H2 receptor (Homo sapiens) + Endothelin-1 receptor (Homo sapiens) + Neuropeptide Y receptor type 1 (Homo sapiens) + B2 bradykinin receptor (Homo sapiens) + Sodium-dependent serotonin transporter (Homo sapiens) + Histamine H1 receptor (Homo sapiens) + Mu-type opioid receptor (Homo sapiens) + D(3) dopamine receptor (Homo sapiens) + Delta-type opioid receptor (Homo sapiens) + Kappa-type opioid receptor (Homo sapiens) + Glutamate receptor ionotropic, kainate 3 (Rattus norvegicus) + 5-hydroxytryptamine receptor 3A (Homo sapiens) + Melatonin receptor type 1A (Homo sapiens) + Neuropeptide Y receptor type 2 (Homo sapiens) + P2Y purinoceptor 1 (Rattus norvegicus) + Thyroid hormone receptor alpha (Rattus norvegicus) + Glutamate receptor ionotropic, NMDA 2B (Rattus norvegicus) + Sodium-dependent dopamine transporter (Homo sapiens) + Protein kinase C zeta type …; conditions: Ricerca radioligand binding panel, at 10 µM, stronger effect = higher value
# [15] = target: Voltage-gated inwardly rectifying potassium channel KCNH2 (Homo sapiens) (UniProt Q12809); conditions: Ricerca radioligand binding panel, Potassium Channel hERG, at 10 µM, stronger effect = higher value
# Sequence of Voltage-gated inwardly rectifying potassium channel KCNH2 (Homo sapiens) (Q12809 whole entry, looked up): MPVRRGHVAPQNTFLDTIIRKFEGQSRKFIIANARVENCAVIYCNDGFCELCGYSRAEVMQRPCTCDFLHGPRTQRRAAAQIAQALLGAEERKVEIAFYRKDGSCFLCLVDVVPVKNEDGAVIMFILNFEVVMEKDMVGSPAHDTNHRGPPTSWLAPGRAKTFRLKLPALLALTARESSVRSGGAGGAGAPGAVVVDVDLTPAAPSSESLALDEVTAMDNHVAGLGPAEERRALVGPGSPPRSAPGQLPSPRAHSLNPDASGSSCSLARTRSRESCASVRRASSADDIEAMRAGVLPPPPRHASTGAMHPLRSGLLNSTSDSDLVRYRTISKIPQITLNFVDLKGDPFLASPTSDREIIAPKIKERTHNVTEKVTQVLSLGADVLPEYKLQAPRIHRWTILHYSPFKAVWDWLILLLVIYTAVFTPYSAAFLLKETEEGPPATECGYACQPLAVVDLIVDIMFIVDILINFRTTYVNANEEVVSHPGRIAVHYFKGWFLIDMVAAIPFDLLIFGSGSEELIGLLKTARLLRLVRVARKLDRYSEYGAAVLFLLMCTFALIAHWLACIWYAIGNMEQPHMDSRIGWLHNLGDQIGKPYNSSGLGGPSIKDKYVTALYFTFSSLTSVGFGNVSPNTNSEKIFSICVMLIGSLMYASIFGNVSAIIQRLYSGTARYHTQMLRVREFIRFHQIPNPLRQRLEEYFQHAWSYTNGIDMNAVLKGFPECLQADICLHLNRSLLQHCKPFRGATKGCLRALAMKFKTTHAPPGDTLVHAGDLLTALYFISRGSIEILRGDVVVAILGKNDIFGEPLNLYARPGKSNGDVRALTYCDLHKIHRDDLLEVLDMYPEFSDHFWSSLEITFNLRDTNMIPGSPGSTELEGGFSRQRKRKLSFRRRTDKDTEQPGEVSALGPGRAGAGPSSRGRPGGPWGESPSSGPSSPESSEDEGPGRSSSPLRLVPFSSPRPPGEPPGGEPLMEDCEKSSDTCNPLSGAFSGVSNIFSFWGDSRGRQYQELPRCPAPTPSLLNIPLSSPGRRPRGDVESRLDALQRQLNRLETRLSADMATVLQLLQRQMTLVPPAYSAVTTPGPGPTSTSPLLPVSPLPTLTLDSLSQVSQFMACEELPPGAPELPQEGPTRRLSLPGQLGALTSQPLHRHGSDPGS
# Sequence of Neuropeptide Y receptor type 1 (Homo sapiens) (P25929 whole entry, looked up): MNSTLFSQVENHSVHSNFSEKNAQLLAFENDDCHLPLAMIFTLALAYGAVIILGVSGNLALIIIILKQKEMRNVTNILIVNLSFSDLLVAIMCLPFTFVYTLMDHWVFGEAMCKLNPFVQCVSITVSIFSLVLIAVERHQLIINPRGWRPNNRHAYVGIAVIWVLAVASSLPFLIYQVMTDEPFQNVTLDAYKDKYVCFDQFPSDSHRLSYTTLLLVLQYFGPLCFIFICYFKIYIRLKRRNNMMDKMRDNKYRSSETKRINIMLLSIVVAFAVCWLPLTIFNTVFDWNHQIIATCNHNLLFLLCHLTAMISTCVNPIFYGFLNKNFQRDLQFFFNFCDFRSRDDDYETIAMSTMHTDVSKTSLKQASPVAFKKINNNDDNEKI
# Sequence of Neuropeptide Y receptor type 2 (Homo sapiens) (P49146 whole entry, looked up): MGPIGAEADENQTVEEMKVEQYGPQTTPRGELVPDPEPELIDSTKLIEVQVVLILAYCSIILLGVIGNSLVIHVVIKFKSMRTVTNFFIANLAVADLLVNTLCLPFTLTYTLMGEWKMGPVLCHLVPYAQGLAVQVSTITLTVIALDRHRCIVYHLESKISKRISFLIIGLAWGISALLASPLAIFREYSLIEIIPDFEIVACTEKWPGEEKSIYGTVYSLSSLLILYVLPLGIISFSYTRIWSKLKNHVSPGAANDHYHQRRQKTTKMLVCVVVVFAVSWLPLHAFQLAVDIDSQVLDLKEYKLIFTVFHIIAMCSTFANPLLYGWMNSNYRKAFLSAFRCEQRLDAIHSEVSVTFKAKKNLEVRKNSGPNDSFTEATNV
# Sequence of Platelet-activating factor receptor (Homo sapiens) (P25105 whole entry, looked up): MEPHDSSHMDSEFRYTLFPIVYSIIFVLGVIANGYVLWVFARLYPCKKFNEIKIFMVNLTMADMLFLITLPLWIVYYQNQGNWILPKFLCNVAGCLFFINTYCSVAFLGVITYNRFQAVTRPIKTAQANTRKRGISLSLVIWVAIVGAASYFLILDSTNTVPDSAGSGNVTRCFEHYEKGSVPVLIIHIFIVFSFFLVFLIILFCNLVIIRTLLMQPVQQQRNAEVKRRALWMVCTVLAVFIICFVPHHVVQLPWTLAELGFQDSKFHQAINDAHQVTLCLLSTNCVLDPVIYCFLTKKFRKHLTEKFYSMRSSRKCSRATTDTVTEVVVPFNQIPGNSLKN
# Sequence of Muscarinic acetylcholine receptor M1 (Homo sapiens) (P11229 whole entry, looked up): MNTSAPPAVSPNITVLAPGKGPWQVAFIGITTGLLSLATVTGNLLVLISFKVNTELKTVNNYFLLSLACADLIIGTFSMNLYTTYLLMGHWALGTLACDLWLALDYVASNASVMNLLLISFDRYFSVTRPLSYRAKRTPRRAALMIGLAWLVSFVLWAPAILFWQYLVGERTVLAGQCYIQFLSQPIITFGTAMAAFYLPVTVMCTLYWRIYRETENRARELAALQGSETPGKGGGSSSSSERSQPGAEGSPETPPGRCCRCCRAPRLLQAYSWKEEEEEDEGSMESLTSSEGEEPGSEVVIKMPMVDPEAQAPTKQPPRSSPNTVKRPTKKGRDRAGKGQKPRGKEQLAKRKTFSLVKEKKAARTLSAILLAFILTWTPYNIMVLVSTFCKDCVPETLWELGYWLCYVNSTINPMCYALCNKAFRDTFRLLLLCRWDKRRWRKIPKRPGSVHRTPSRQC
# Sequence of Kappa-type opioid receptor (Homo sapiens) (P41145 whole entry, looked up): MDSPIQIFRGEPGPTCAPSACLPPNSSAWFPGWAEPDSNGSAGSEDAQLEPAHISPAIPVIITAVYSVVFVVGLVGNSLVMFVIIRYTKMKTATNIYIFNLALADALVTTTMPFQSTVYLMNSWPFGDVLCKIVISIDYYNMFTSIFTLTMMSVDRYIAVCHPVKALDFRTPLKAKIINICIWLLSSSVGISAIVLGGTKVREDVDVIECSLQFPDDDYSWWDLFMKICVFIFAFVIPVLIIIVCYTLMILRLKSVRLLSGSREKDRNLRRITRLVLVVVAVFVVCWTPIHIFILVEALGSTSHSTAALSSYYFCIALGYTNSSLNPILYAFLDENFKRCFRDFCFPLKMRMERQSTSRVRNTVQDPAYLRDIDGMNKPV
# Sequence of Muscarinic acetylcholine receptor M3 (Homo sapiens) (P20309 whole entry, looked up): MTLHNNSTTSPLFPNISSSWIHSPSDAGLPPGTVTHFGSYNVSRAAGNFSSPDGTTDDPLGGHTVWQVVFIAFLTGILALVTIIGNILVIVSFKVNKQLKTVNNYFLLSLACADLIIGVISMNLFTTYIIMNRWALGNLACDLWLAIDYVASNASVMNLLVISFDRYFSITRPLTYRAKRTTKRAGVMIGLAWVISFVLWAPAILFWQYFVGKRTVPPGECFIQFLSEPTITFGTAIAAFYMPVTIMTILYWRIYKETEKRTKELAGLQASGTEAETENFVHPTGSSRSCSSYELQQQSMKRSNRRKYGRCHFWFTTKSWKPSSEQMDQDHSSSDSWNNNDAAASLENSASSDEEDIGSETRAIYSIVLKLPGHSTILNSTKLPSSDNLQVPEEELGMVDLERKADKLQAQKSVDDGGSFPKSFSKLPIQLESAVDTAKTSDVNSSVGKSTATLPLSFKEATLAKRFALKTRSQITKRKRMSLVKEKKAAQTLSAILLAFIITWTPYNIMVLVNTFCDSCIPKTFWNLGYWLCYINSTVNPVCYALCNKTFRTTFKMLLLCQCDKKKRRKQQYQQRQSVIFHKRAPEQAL
# Sequence of Muscarinic acetylcholine receptor M2 (Homo sapiens) (P08172 whole entry, looked up): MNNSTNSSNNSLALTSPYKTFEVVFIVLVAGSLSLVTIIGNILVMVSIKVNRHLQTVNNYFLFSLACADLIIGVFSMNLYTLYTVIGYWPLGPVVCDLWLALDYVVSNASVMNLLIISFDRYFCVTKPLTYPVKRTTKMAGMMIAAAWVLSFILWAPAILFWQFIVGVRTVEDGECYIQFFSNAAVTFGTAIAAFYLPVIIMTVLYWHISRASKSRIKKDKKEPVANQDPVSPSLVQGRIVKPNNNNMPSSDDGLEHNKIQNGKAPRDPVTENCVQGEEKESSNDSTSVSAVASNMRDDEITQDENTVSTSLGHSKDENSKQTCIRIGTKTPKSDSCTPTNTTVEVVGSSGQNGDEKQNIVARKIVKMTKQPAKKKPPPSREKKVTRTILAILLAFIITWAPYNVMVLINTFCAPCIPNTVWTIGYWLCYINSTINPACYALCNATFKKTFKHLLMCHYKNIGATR
smiles,measurement,setting,value
COc1ccc(CC2CCN(c3ncnc4sccc34)CC2)cc1,inhibition,"Glutamate, NMDA, Glycine",1% (inactive)
same,inhibition,[1],13% (inactive)
same,inhibition,Histamine H1,8% (inactive)
same,inhibition,Histamine H2,-8% (inactive)
same,inhibition,Histamine H3,-2% (inactive)
same,inhibition,"Imidazoline I2, Central",15% (inactive)
same,inhibition,Interleukin IL-1,9% (inactive)
same,inhibition,[2],69%
same,inhibition,[3],-3% (inactive)
same,inhibition,Melatonin MT1,68%
same,inhibition,[4],-5% (inactive)
same,inhibition,[5],4% (inactive)
same,inhibition,[6],11% (inactive)
same,inhibition,[7],2% (inactive)
same,inhibition,[8],11% (inactive)
same,inhibition,Nicotinic Acetylcholine,-26% (inactive)
same,inhibition,"Opiate (OP3, MOP)",55%
same,inhibition,Phorbol Ester,10% (inactive)
same,inhibition,[9],30% (inactive)
same,inhibition,Potassium Channel KATP,18% (inactive)
same,inhibition,Prostanoid EP4,27% (inactive)
same,inhibition,Purinergic P2X,-12% (inactive)
same,inhibition,Purinergic P2Y,-7% (inactive)
same,inhibition,Rolipram,12% (inactive)
same,inhibition,[10],-13% (inactive)
same,inhibition,Sigma1,13% (inactive)
same,inhibition,Tachykinin NK1,6% (inactive)
same,inhibition,Thyroid Hormone,9% (inactive)
same,inhibition,[11],98%
same,inhibition,"Transporter, GABA",1% (inactive)
same,inhibition,[12],80%
same,inhibition,[13],44% (inactive)
same,inhibition,[14],3% (inactive)
same,inhibition,[15],28% (inactive)
